# Like-named read-outs stand apart in the source and are kept apart here.
# How the values were obtained:
# [1] = test system: R848-induced TNFα production by human peripheral blood mononuclear cells (PBMCs); test: R848 Induced TNFα in Human PBMC Assay; type: cell-based
# Description: R848 Induced TNFα in Human PBMC Assay.
# This protocol is for R848-induced TNFα production by human peripheral blood mononuclear cells (PBMCs). […] The assay is used to assess cell-based potency of small molecule inhibitors of IRAK4 in the absence of serum.
# The PBMCs in the interphase layer were collected and washed with PBS via centrifugation multiple times until the supernatant is clear. The purified PBMCs were re-suspended in RPMI (Roswell Park Memorial Institute) media (Sigma-Aldrich).
# For the assay, a compound dilution plate containing a top concentration of 4 mM compound in DMSO was serially diluted 4-fold for 11 times. 250 nL of the compound dilution plate was spotted into a 384-well, flat bottom with IId, TC-treated, black with clear bottom, sterile, polystyrene plate (Corning Life Sciences).
# 10 μL of anti-TNFα antibody labeled with MSD SULFO-TAG at 50 μg/mL was added to each well and allowed to incubate overnight at 4° C. […] The plates were then imaged on an MSD Sector Imager 6000.
# [2] = test system: collagen-induced arthritis (hind paw volume); test: In Vivo Rat Collagen-Induced Arthritis Model; details: Lewis rat
# Procedure: In Vivo Rat Collagen-Induced Arthritis Model.
# Efficacy of IRAK4 compounds of the present invention was also evaluated in a rat in vivo model of rheumatoid arthritis (M. Hegen, J. C. Keith, Jr, M. Collins, C. L. Nickerson-Nutter, Ann. Rheum. Dis. 2008, 67, 1505-1515). An exemplary protocol for this in vivo model follows.
# Female Lewis rats, approximately 7 weeks old, were immunized with an emulsion of type II collagen (CII) and incomplete Freund's adjuvant (IFA) on day 0 and received a boost of CII/IFA on day 7. Hind paw volume increase was taken by plethysmograph. Animals were randomly enrolled into treatment groups based on the development of disease. Beginning on day 11 post immunization, rats were enrolled into random treatment groups based on an increase in a single hind paw volume compared to day 7 post immunization baseline measurements.
# Ten rats were enrolled per treatment group with the exception of the naive control group, which contained two rats. Day 0 was designated as the first treatment day, and paw measurements are taken daily by plethysmograph. The rats were weighed on a daily basis.
# IRAK4 inhibitors are efficacious in the Lewis rat model of collagen-induced arthritis.
# [3] = molecular target: human IRAK4 FL (Full Length) (Homo sapiens (Human), UniProt Q9NWZ3); test: IRAK4 Enzymatic DELFIA Assay, Protocol A; type: biochemical; details: 0.6 mM ATP
# Chain of human IRAK4 FL (Full Length) (Q9NWZ3 whole entry): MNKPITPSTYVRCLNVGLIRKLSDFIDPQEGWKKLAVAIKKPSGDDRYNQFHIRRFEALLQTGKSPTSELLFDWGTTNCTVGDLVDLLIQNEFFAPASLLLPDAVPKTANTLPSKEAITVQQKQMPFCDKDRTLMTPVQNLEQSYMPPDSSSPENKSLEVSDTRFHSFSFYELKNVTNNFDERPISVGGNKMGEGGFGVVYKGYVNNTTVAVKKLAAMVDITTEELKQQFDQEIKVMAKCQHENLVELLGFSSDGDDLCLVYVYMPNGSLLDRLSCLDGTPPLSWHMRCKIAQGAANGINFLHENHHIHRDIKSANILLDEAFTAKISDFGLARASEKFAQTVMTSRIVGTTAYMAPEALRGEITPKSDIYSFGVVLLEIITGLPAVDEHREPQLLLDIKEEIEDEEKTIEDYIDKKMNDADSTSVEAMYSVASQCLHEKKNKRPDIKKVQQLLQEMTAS
# [4] = human PBMC, absence of serum, read-out: R848-induced TNFa PBMC IC50
# [5] = Homo sapiens, PBMC, read-out: R848-induced TNFa PBMC IC50 (nM)
compound,measurement,setting,value
"COc1cc2c(OC[C@H]3NC(=O)[C@H]4C3[C@H]4CF)nccc2cc1C(N)=O (stereo in doubt) [Example 303, 1-(((1S,2S,5S,6R)-6-(fluoromethyl)-4-oxo-3-azabicyclo[3.1.0]hexan-2-yl)methoxy)-7-methoxyisoquinoline-6-carboxamide]",IC50,[1]; [4],6050 nM
"Cc1ccc(-n2nc(C(C)(C)C)cc2NC(=O)Nc2ccc(OCCN3CCOCC3)c3ccccc23)cc1 [BIRB796, reference compound]","days with significant reduction of hind paw swelling in CIA rats (t-test, p<0.05 vs. vehicle)","[2]; 30 mg/kg PO, QD, positive control (p38 inhibitor)",Day 1-Day 8
"CC(C)Oc1cc2c(OC[C@@H]3CCC(=O)N3)nccc2cc1C(N)=O [Example 26, 1-{[(2S)-5-oxopyrrolidin-2-yl]methoxy}-7-(propan-2-yloxy)isoquinoline-6-carboxamide]","days with significant reduction of hind paw swelling in CIA rats (t-test, p<0.05 vs. vehicle)","[2]; 30 mg/kg PO, BID, therapeutic treatment for 8 days",Day 2-Day 8
same,"days with significant reduction of hind paw swelling in CIA rats (t-test, p<0.05 vs. vehicle)","[2]; 100 mg/kg PO, BID, therapeutic treatment for 8 days",Day 1-Day 8 (end)
same,hind paw swelling in CIA rats,"[2]; 10 mg/kg PO, BID",transiently significant reduction in hind paw swelling only on Day 5 and Day 6 post treatment
same,hind paw swelling in CIA rats,"[2]; therapeutic treatment BID daily for 8 days, t-test p<0.05 vs. vehicle",reduced the hind paw swelling in CIA rats significantly
"COc1cc2c(OC[C@@H]3C[C@@](F)(CC(F)(F)F)C(=O)N3)cccc2cc1C(N)=O [Example 240, 5-{[(2S,4R)-4-fluoro-5-oxo-4-(2,2,2-trifluoroethyl)pyrrolidin-2-yl]methoxy}-3-methoxynaphthalene-2-carboxamide]",IC50,[3],0.0023 µM
"COc1cc2c(OC[C@@H]3C[C@](F)(CC(F)(F)F)C(=O)N3)cccc2cc1C(N)=O [Example 241, 5-{[(2S,4S)-4-fluoro-5-oxo-4-(2,2,2-trifluoroethyl)pyrrolidin-2-yl]methoxy}-3-methoxynaphthalene-2-carboxamide]",IC50,[3],0.161 µM
"COc1cc2c(OC[C@H]3C[C@@H](F)C(=O)N3)nccc2cc1C(N)=O [Example 275, 1-{[(2R,4R)-4-fluoro-5-oxopyrrolidin-2-yl]methoxy}-7-methoxyisoquinoline-6-carboxamide]",IC50,[1]; [5],5140 nM
same,IC50,[3],0.119 µM
"C[C@@H]1[C@H](F)C(=O)N[C@@H]1COc1nccc2cc(C(N)=O)c(OC3CC3)cc12 [Example 281, 7-(cyclopropyloxy)-1-{[(2S,3S,4S)-4-fluoro-3-methyl-5-oxopyrrolidin-2-yl]methoxy}isoquinoline-6-carboxamide]",IC50,[1]; [5],127 nM
"COc1cc2c(OC[C@H]3NC(=O)[C@@H]4[C@@H](CF)[C@@H]43)nccc2cc1C(N)=O [Example 304, 1-{[(1R,2S,5S)-6-(fluoromethyl)-4-oxo-3-azabicyclo[3.1.0]hex-2-yl]methoxy}-7-methoxyisoquinoline-6-carboxamide]",IC50,[1]; [4],35 nM

# — patent US10793579B2, “Bicyclic-fused heteroaryl or aryl compounds” (Pfizer Inc., priority 2014, dated 2020)
